Measurements reported in US8093030B2, “Thermostable viral polymerases and methods of use” (Lucigen Corporation, priority 2005, dated 2012).

Experiments:
[1] = biological target: polymerase 3173 (SEQ ID NO:6) mutant D49A (uncultured virus, UniProt R4KMS7, D72A); test: Inhibition of 5' Rox-labeled primer extension by chain terminators (ABI 310 Genetic Analyzer); type: biochemical; conditions: ddNTPs 50, 500 and 5000 μM each vs 50 μM each dNTP (up to 100-fold molar excess); 70° C., 30 minutes
Procedure: In separate reactions, ddGTP, ddATP, ddTTP, and ddCTP were added to the above mix in concentrations of 50, 500 and 5000 μM each. Five units of polymerase 3173 mutant D49A were added and the reactions were incubated for 30 minutes at 70° C. Extension of the primer was detected by the ABI 310 Genetic Analyzer in Gene Scan mode.

lacIq gene = test: Fidelity assay, lacIq amplification with blue/white colony count; conditions: 25 PCR cycles; target size 349 for lacIq
Procedure: Fidelity was determined by a modification of the standard assay in which the lacIq gene is amplified by the DNA polymerase of interest and inserted into a plasmid containing genes encoding a functional lacZ alpha peptide and a selectable marker. Primers of SEQ ID NOS:28 and 29 were used to amplify a sequence containing both the lacIq and the KanR gene. […] Normally a white phenotype is seen for clone containing this construct when plated on X-Gal. Mutation of the lacIq results in a blue phenotype for the colonies when plated on X-Gal.
For high fidelity PCR amplification, five units of the wild-type (proofreading) DNA polymerase 3173 (SEQ ID NO: 6) was tested using the following mix (50 mM Tris HCl (pH 9.0 at 25° C.), 50 mM KCl, 10 mM (NH4)2SO4, 1.5 mM MgSO4, 1.5 mM MgCl2, 0.1% triton-X100, 250 mM ectoine and 0.2 mM each of dGTP, dATP, dTTP and dCTP. Opposing primers of SEQ ID 28 and 29 (1 μM each) amplified the expected 2 k kb product from template SEQ ID 30 (10 ng). After thermal cycling (94° C. for 1 minute, 25 cycles of (94° C. for 15 seconds, 60° C. for 15 seconds, 72° C. for 2.5 minutes) and 72° C. 7 minutes), reaction products were quantified to determine “fold amplification,” (see below) using agarose gel electrophoresis. Both primers contain Eco109I sites. The PCR product was digested with Eco109I and inserted into the Eco109I site of pUC19. 10 G cells transformed by the construct were plated on LB plates containing ampicillin (100 μg/ml), kanamycin (30 μg/ml) and X-Gal (50 μg/ml). Blue and white colony counts were used for the fidelity determinations.

[2] = system: ROX-labeled 37 nt primer annealed to 41 nt template; test: Primer extension assay of heat-treated clone extracts (ABI 310 capillary electrophoresis); type: biochemical; conditions: extract heated 70° C. 10 min; reaction 70° C. 10 minutes
Procedure: 34 complete polymerase genes from the library described in Examples 3 and 4, as well as 24 additional viral genes from three other similarly prepared libraries, were constitutively expressed in the E. CLONI 10 G cells (Lucigen, Middleton, Wis.). The proteins were extracted, heated to 70° C. for 10 minutes and tested for DNA polymerase activity using a primer extension assay as follows.
A primer of 37 nucleotides having the sequence shown in SEQ ID NO:23, labeled on its 5′ end with ROX, was annealed to a template of 41 nucleotides having the sequence shown in SEQ ID NO:24. […] The reaction was incubated at 70° C. for 10 minutes. The reactions were analyzed using an ABI 310 Genetic Analyzer. […] Of the 58 clones tested, a total of ten clones expressed detectable DNA polymerase (DNAP) activity. The clone number and corresponding polynucleotide sequence, polypeptide sequence, sequence similarity and E (expect)-values for these polymerases are shown below in Table 1.

Sequence of polymerase 3173 (SEQ ID NO:6) mutant D49A (R4KMS7 entry or part of it D72A): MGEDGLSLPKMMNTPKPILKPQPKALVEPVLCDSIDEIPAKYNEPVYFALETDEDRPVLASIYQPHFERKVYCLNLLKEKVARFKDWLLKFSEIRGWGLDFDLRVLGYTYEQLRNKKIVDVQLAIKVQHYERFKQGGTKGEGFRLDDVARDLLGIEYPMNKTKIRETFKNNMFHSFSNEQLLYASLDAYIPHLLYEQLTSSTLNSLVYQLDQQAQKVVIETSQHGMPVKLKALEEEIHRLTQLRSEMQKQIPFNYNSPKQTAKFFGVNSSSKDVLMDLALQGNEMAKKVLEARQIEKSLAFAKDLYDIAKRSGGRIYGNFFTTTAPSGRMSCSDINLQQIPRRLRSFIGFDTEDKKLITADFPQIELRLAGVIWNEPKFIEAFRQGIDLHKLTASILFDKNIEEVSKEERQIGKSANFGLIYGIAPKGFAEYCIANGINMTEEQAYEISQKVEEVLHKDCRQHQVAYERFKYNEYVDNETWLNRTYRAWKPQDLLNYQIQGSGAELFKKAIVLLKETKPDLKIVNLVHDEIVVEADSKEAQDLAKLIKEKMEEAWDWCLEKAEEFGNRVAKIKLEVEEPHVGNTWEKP

Molecule | inhibition of primer extension [1] | Exo (exonuclease activity, either 3′-5′ or 5′-3′) [2] | other results
Nc1ncnc2c1ncn2[C@H]1CC[C@@H](COP(=O)(O)OP(=O)(O)OP(=O)(O)O)O1 [ddATP] | no inhibition of primer extension was detected | – | –
Nc1ccn([C@H]2CC[C@@H](COP(=O)(O)OP(=O)(O)OP(=O)(O)O)O2)c(=O)n1 [ddCTP] | no inhibition of primer extension was detected | – | –
Cc1cn([C@H]2CC[C@@H](COP(=O)(O)OP(=O)(O)OP(=O)(O)O)O2)c(=O)[nH]c1=O [ddTTP] | no inhibition of primer extension was detected | – | –
Taq: standard commercial DNA polymerase (Lucigen) used for comparison [reference compound] | – | – | Fidelity (lacIq gene): 9.76E+03
Clone 488: thermostable viral DNA polymerase clone, polypeptide SEQ ID NO: 4 (protein, Uncultured newly isolated virus) AVGTWITTLQKLGFTYEELEDKEVLDLLSIARLVLPERFKENGFSLDVVLKEVLGIDYKFDKKTIRKTFTPLLMTQEQLEYIASDVIYLPALKEKLDEKFNKRLWLPYILDMEATKILAEVSNNGMPFLKEKAKEELSRLSKELEGLRKELGFNPNSPKETQKVLNTPDTSEATLMKLIISNSSKKAIAEKVIQARKIQKVIAMINKYLNYDRVKGTFWTTTAPSGRMSCDKENLQQIPRSIRYLFGFDENSDKTLVIADYPQIELRLAGVLWKEPKFIQAFNEGKDLHKQTASIIYGIPYEEVNKEQRQIAKSANFGLIYGMSVEGFANYCIKNGIPMDTQTAQHIVNSFFNFYGKIAEKHKEGNLIIQSQGIAEGYTWLGRRYIAQRLNDYLNYQIQGSGAELLKKAVMEIKSKYPYIKIVNLVHDEIVVEAYKDDAQDIARIIKQEMENAWEWCIQEAQKLGVDLTPVKLECENPTISNVWEK | – | No | –
Clone 967: thermostable viral DNA polymerase clone, polypeptide SEQ ID NO: 14 (protein, Uncultured newly isolated virus) MQKEIPFNYNSPKQTAKLFGIDSSSKDVLMDLALRGNEVAKKVLEARQIEKSLAFAKDLYDIAKKNGGRIHGNFFTTTAPSGRMSCSDINLQQIPRRLRQFIGFETEDKKLITADFPQIELRLAGVMWNEPEFLKAFRDGIDLHKLTASILFDKKINEVSKEERQIGKSANFGLIYGISPKGFAEYCISNGINITEEMAIEIVKKWKKFYRKIAEQHQLAYERFKYAEFVDNETWLNRPYRAYKPQDLLNYQIQGSGAELFKKAIILLKETKPDLKLVNLVHDEIVVETSTEEAEDIALLVKQKMEEAWDYCLEKAKEFGNNVADIKLEVEKPNISSVWEKE | – | No | –
Clone 4110: thermostable viral DNA polymerase clone, polypeptide SEQ ID NO: 8 (protein, Uncultured newly isolated virus) MGLDQILDMSYFVDSGATMLKLILRGSGGKNVVTVPAPFNPYFFIKKRDLDRAQSILPDYARVEDADAITAEGERVVKISVPTPPLVRVVREKLHEEGIESYEADIPYTRRVMIDLDLKVAYPETVAAFDIEVDATKGFPDINNPQSRVLSISVYDGSEEIFLCSDDEIEMFKEFNKLLRKYDVLIGWNSAAFDYPYLVERAKVLGYYVDEEMFQHVDIFGIFQTYFKREMSDFKLKTVALKVLGSKVPLGALLDFERPGDIRKLTEFFEKRRDLLKLYNMDQTKAIWMINSESGVLQTYITQARLANIIPWHRVSPRTDSSQEYISYNNDCRDLVLKKALAHKPRIVFPSKKNGENEDWDEDAKESTYTGAIVFNPIPGLWENVVLLDFASMYPRVIMTFNISYDTWTPNPGENDILAPHGGFITSREGFLPTVLRELEGYRSLAKKMVDAYEPGDPMRVIWNARQFAFKLILVSAYGVAGFRHSRLYRVEIAESITGYTRDAIMKAREVIERHGWRVLYGDTDSLFLYNPKITSVEKASEVASSELLPAINSFIRDYVVERWRVPRSRVVLEFKVDRVYSKLKLLSVKKRYYGLVAWEERMLEQPYIQIKGLEARRGDWPDLVKEIQSEVIKLYLLEGPIAVDRYLKEMKRKLLSGEIPLEKLVIKKHLNKRLDEYKHNAPHYRAARKLLEMRFPVRTGDRIEFIYLDDKVIPMVPGLKLSEVDLKKWWRKYVVPVVERLEIESRGS | – | No | –
